Laboratory results published in publication PMC11595424, “Heterocycles and a Sorbicillinoid from the Coral-Derived Fungus Penicillium chrysogenum” (Marine Drugs, 2024).

What follows are molecules tested on MDA-MB-231 (human breast cancer) (assay: Cytotoxicity assay, SRB method, MDA-MB-231). Settings: Homo sapiens; MDA-MB-231 cells, SRB method.
Type: cell-based
Description: (§1) The cytotoxic activity against the K562 (human leukemia) cell line was evaluated by MTT method, and the cytotoxic activities against L-02 (normal human hepatocytes), ASPC-1 (human pancreatic cancer), MDA-MB-231 (human breast cancer), NCI-H446, and NCI-H446/EP (human small cell lung cancer) cell lines were determined by SRB method. The difference between the two human small-cell lung cancer cell lines is that NCI-H446 is a sensitive cell line while the NCI-H446/EP cell line is resistant to cisplatin, etoposide, SN38, and doxorubicin. As a positive control, doxorubicin was used. […]
(§2) The cytotoxic activity against the K562 (human leukemia) cell line was evaluated by MTT method, and the cytotoxic activities against L-02 (normal human hepato-cytes), ASPC-1 (human pancreatic cancer), MDA-MB-231 (human breast cancer), NCI-H446 and NCI-H446/EP (human small cell lung cancer) cell lines were determined by SRB method.
(§3) Doxorubicin was used as a positive control.
(§4) In the cytotoxic assay, preliminary screening for cytotoxicity of compounds was performed at the concentration of 30 μM, then the compounds with inhibition rate greater than 60 % were rescreened for the IC 50 values. The blank control, vehicle control, positive control (doxorubicin) and compounds at five different concentrations (30, 15, 3.75, 1.875 and 0.9375 μM) were tested three times and the average OD values were taken to calculated IC50 values.
(§5) Table S11. Cytotoxic activities of 1−5
(§6) Compound c Inhibition rate (%) […]
(§7) a Doxorubicin was used as positive control. […]
For C/C=C/C=C/C(=O)c1cc(C)c(C(=O)O)c(C)c1O [Compound 5, 4-Carboxylsorbicillin], the IC50 was over 30 µM. COc1cccc2c1C(=O)c1c(O)c3c(c(O)c1C2=O)C[C@@](O)(C(=O)CO)C[C@@H]3O[C@H]1C[C@H](N)[C@H](O)[C@H](C)O1 [Doxorubicin, reference compound] was tested, and the IC50 was under 1 µM.

Same assay, conditions: Table S11, positive control, c 1 μM
COc1cccc2c1C(=O)c1c(O)c3c(c(O)c1C2=O)C[C@@](O)(C(=O)CO)C[C@@H]3O[C@H]1C[C@H](N)[C@H](O)[C@H](C)O1 [Doxorubicin, reference compound] was tested, and the “Inhibition rate (%) MDA-MB-231” value was 65.37%.

Same assay, conditions: Table S11, preliminary screening, c 30 μM
With C/C=C/C=C/C(=O)c1cc(C)c(C(=O)O)c(C)c1O [Compound 5, 4-Carboxylsorbicillin] the “Inhibition rate (%) MDA-MB-231” value was -14.63%.

These molecules were tested on K562 (human leukemia) cell line (assay: Cytotoxicity assay, MTT method, K562). Settings: Homo sapiens; K562 cell line, MTT method.
Type: cell-based
Description: as §1, §2, §3, §4, §5, §6
a Doxorubicin was used as positive control.
Table S12. Cytotoxicity against K562 cell line of 5
For C/C=C/C=C/C(=O)c1cc(C)c(C(=O)O)c(C)c1O [Compound 5, 4-Carboxylsorbicillin], the IC50 was 15 µM. For COc1cccc2c1C(=O)c1c(O)c3c(c(O)c1C2=O)C[C@@](O)(C(=O)CO)C[C@@H]3O[C@H]1C[C@H](N)[C@H](O)[C@H](C)O1 [Doxorubicin, reference compound], the IC50 was under 1 µM.

Same assay, conditions: Table S11, positive control, c 1 μM
In the case of COc1cccc2c1C(=O)c1c(O)c3c(c(O)c1C2=O)C[C@@](O)(C(=O)CO)C[C@@H]3O[C@H]1C[C@H](N)[C@H](O)[C@H](C)O1 [Doxorubicin, reference compound], the “Inhibition rate (%) K562” value is reported as 100.00%.

Same assay, conditions: Table S11, preliminary screening, c 30 μM
C/C=C/C=C/C(=O)c1cc(C)c(C(=O)O)c(C)c1O [Compound 5, 4-Carboxylsorbicillin] was tested, and the “Inhibition rate (%) K562” value was 97.15%.

Same assay, conditions: Table S12, K562, IC50 rescreen, c 0.9375 μM
With C/C=C/C=C/C(=O)c1cc(C)c(C(=O)O)c(C)c1O [Compound 5, 4-Carboxylsorbicillin] the “Inhibition rate (%)” value was 8.60%.

Same assay, conditions: Table S12, K562, IC50 rescreen, c 1 μM
For COc1cccc2c1C(=O)c1c(O)c3c(c(O)c1C2=O)C[C@@](O)(C(=O)CO)C[C@@H]3O[C@H]1C[C@H](N)[C@H](O)[C@H](C)O1 [Doxorubicin, reference compound], the “Inhibition rate (%)” value was 100.00%.

Same assay, conditions: Table S12, K562, IC50 rescreen, c 1.875 μM
In the case of C/C=C/C=C/C(=O)c1cc(C)c(C(=O)O)c(C)c1O [Compound 5, 4-Carboxylsorbicillin], the “Inhibition rate (%)” value is reported as 7.71%.

Same assay, conditions: Table S12, K562, IC50 rescreen, c 3.75 μM
In the case of C/C=C/C=C/C(=O)c1cc(C)c(C(=O)O)c(C)c1O [Compound 5, 4-Carboxylsorbicillin], the “Inhibition rate (%)” value is reported as 13.35%.

Same assay, conditions: Table S12, K562, IC50 rescreen, c 15 μM
With C/C=C/C=C/C(=O)c1cc(C)c(C(=O)O)c(C)c1O [Compound 5, 4-Carboxylsorbicillin] the “Inhibition rate (%)” value was 47.36%.

Same assay, conditions: Table S12, K562, IC50 rescreen, c 30 μM
In the case of C/C=C/C=C/C(=O)c1cc(C)c(C(=O)O)c(C)c1O [Compound 5, 4-Carboxylsorbicillin], the “Inhibition rate (%)” value is reported as 77.22%.

These molecules were tested on NCI-H446 (human small cell lung cancer) cell line (assay: Cytotoxicity assay, SRB method, NCI-H446). Settings: Homo sapiens; NCI-H446 (sensitive) cells, SRB method.
Type: cell-based
Description: as §1, §2, §3, §4, §5, §6, §7
Table S13. Cytotoxicity against NCI-H446 cell line of 5 c (μM) OD value Inhibition rate (%) IC 50 ( μM)
C/C=C/C=C/C(=O)c1cc(C)c(C(=O)O)c(C)c1O [Compound 5, 4-Carboxylsorbicillin] showed an IC50 of 16.9 µM. COc1cccc2c1C(=O)c1c(O)c3c(c(O)c1C2=O)C[C@@](O)(C(=O)CO)C[C@@H]3O[C@H]1C[C@H](N)[C@H](O)[C@H](C)O1 [Doxorubicin, reference compound] gave an IC50 of under 1 µM.

Same assay, conditions: Table S11, positive control, c 1 μM
For COc1cccc2c1C(=O)c1c(O)c3c(c(O)c1C2=O)C[C@@](O)(C(=O)CO)C[C@@H]3O[C@H]1C[C@H](N)[C@H](O)[C@H](C)O1 [Doxorubicin, reference compound], the “Inhibition rate (%) NCI-H446” value was 52.20%.

Same assay, conditions: Table S11, preliminary screening, c 30 μM
For C/C=C/C=C/C(=O)c1cc(C)c(C(=O)O)c(C)c1O [Compound 5, 4-Carboxylsorbicillin], the “Inhibition rate (%) NCI-H446” value was 86.08%.

Same assay, conditions: Table S13, NCI-H446, IC50 rescreen, c 0.9375 μM
C/C=C/C=C/C(=O)c1cc(C)c(C(=O)O)c(C)c1O [Compound 5, 4-Carboxylsorbicillin] was tested, and the “Inhibition rate (%)” value was -8.00%.

Same assay, conditions: Table S13, NCI-H446, IC50 rescreen, c 1.875 μM
In the case of C/C=C/C=C/C(=O)c1cc(C)c(C(=O)O)c(C)c1O [Compound 5, 4-Carboxylsorbicillin], the “Inhibition rate (%)” value is reported as 0.43%.

Same assay, conditions: Table S13, NCI-H446, IC50 rescreen, c 3.75 μM
In the case of C/C=C/C=C/C(=O)c1cc(C)c(C(=O)O)c(C)c1O [Compound 5, 4-Carboxylsorbicillin], the “Inhibition rate (%)” value is reported as 2.66%.

Same assay, conditions: Table S13, NCI-H446, IC50 rescreen, c 15 μM
With C/C=C/C=C/C(=O)c1cc(C)c(C(=O)O)c(C)c1O [Compound 5, 4-Carboxylsorbicillin] the “Inhibition rate (%)” value was 51.20%.

Same assay, conditions: Table S13, NCI-H446, IC50 rescreen, c 30 μM
With C/C=C/C=C/C(=O)c1cc(C)c(C(=O)O)c(C)c1O [Compound 5, 4-Carboxylsorbicillin] the “Inhibition rate (%)” value was 74.28%.

Each molecule was assayed on K562 (human leukemia) cell line (assay: Cytotoxicity assay, MTT method, K562). Settings: Table S12, K562, IC50 rescreen, c 7.5 μM.
Type: cell-based
C/C=C/C=C/C(=O)c1cc(C)c(C(=O)O)c(C)c1O [Compound 5, 4-Carboxylsorbicillin] was tested, and the “Inhibition rate (%)” value was 20.85%.

The molecules below were run on ASPC-1 (human pancreatic cancer) (assay: Cytotoxicity assay, SRB method, ASPC-1). Settings: Homo sapiens, ASPC1; ASPC-1 cells, SRB method.
Type: cell-based
Description: as §1, §2, §3, §4, §5, §6, §7
C/C=C/C=C/C(=O)c1cc(C)c(C(=O)O)c(C)c1O [Compound 5, 4-Carboxylsorbicillin] gave an IC50 of over 30 µM. In the case of COc1cccc2c1C(=O)c1c(O)c3c(c(O)c1C2=O)C[C@@](O)(C(=O)CO)C[C@@H]3O[C@H]1C[C@H](N)[C@H](O)[C@H](C)O1 [Doxorubicin, reference compound], the IC50 is reported as over 1 µM.

Same assay, conditions: Table S11, positive control, c 1 μM
For COc1cccc2c1C(=O)c1c(O)c3c(c(O)c1C2=O)C[C@@](O)(C(=O)CO)C[C@@H]3O[C@H]1C[C@H](N)[C@H](O)[C@H](C)O1 [Doxorubicin, reference compound], the “Inhibition rate (%) ASPC-1” value was 29.65%.

Same assay, conditions: Table S11, preliminary screening, c 30 μM
For C/C=C/C=C/C(=O)c1cc(C)c(C(=O)O)c(C)c1O [Compound 5, 4-Carboxylsorbicillin], the “Inhibition rate (%) ASPC-1” value was 25.47%.

The molecules below were run on NCI-H446 (human small cell lung cancer) cell line (assay: Cytotoxicity assay, SRB method, NCI-H446). Settings: Table S13, NCI-H446, IC50 rescreen, c 7.5 μM.
Type: cell-based
C/C=C/C=C/C(=O)c1cc(C)c(C(=O)O)c(C)c1O [Compound 5, 4-Carboxylsorbicillin] was tested, and the “Inhibition rate (%)” value was 14.10%.

What follows are molecules tested on L-02 (normal human hepatocytes) (assay: Cytotoxicity assay, SRB method, L-02). Settings: Homo sapiens, L02; L-02 cells, SRB method.
Type: cell-based
Description: as §1, §2, §3, §4, §5, §6, §7
C/C=C/C=C/C(=O)c1cc(C)c(C(=O)O)c(C)c1O [Compound 5, 4-Carboxylsorbicillin] was tested, and the IC50 was over 30 µM. In the case of COc1cccc2c1C(=O)c1c(O)c3c(c(O)c1C2=O)C[C@@](O)(C(=O)CO)C[C@@H]3O[C@H]1C[C@H](N)[C@H](O)[C@H](C)O1 [Doxorubicin, reference compound], the IC50 is reported as under 1 µM.

Same assay, conditions: Table S11, positive control, c 1 μM
With COc1cccc2c1C(=O)c1c(O)c3c(c(O)c1C2=O)C[C@@](O)(C(=O)CO)C[C@@H]3O[C@H]1C[C@H](N)[C@H](O)[C@H](C)O1 [Doxorubicin, reference compound] the “Inhibition rate (%) L-02” value was 87.67%.

Same assay, conditions: Table S11, preliminary screening, c 30 μM
For C/C=C/C=C/C(=O)c1cc(C)c(C(=O)O)c(C)c1O [Compound 5, 4-Carboxylsorbicillin], the “Inhibition rate (%) L-02” value was 13.89%.

What follows are molecules tested on NCI-H446/EP (human small cell lung cancer) cell line (assay: Cytotoxicity assay, SRB method, NCI-H446/EP). Settings: Homo sapiens; NCI-H446/EP cells (resistant to cisplatin, etoposide, SN38, doxorubicin), SRB method.
Type: cell-based
Description: as §1, §2, §3, §4, §5, §6, §7
Molecule C/C=C/C=C/C(=O)c1cc(C)c(C(=O)O)c(C)c1O [Compound 5, 4-Carboxylsorbicillin] has an IC50 of over 30 µM. COc1cccc2c1C(=O)c1c(O)c3c(c(O)c1C2=O)C[C@@](O)(C(=O)CO)C[C@@H]3O[C@H]1C[C@H](N)[C@H](O)[C@H](C)O1 [Doxorubicin, reference compound] gave an IC50 of over 1 µM.

Same assay, conditions: Table S11, positive control, c 1 μM
For COc1cccc2c1C(=O)c1c(O)c3c(c(O)c1C2=O)C[C@@](O)(C(=O)CO)C[C@@H]3O[C@H]1C[C@H](N)[C@H](O)[C@H](C)O1 [Doxorubicin, reference compound], the “Inhibition rate (%) NCI-H446/EP” value was 27.60%.

Same assay, conditions: Table S11, preliminary screening, c 30 μM
C/C=C/C=C/C(=O)c1cc(C)c(C(=O)O)c(C)c1O [Compound 5, 4-Carboxylsorbicillin] was tested, and the “Inhibition rate (%) NCI-H446/EP” value was 54.99%.
